Measured values reported in US20240262807A1, “COMPOUND USED AS BCR-ABL INHIBITOR” (CHIA TAI TIANQING PHARMACEUTICAL GROUP CO., LTD., priority 2021, published 2024).

Experiments:
K562 cells = assay: Inhibitory effect of compounds on proliferation of K562 cells (CCK-8); format: cell-based; conditions: Homo sapiens, 72 h with compound, CCK-8, 5% serum
Procedure: K562 cells in logarithmic growth phase and good cell condition were added to a centrifuge tube and centrifuged at 1000 rpm for 5 min in a low speed centrifuge. […] The cells were seeded on a 96-well plate at 100 µL/well using a multi-channel pipette and cultured in a cell incubator at 37° ° C. 5% CO2 and saturated humidity. […] Inhibition rate (%)=(mean value of negative control group−mean value of experimental group)/(mean value of negative control group−mean value of blank group)×100%. A dose-response curve was fitted by four-parameter analysis, with the logarithm of compound concentration serving as abscissa and inhibition rate serving as ordinate, such that IC50 was calculated.

[1] = biological target: T1, Ba/F3-BCR-ABL1-T315I-C3 cells (Homo sapiens, UniProt P00519, T315I, cells depend on it); assay: Inhibitory effect of compounds on proliferation of BCR-ABL T315I-transfected Ba/F3 cells (CCK-8); format: cell-based; conditions: 72 h with compound, CCK-8, 5% serum, read-out: IC50 (nM) Ba/F3-BCR-ABL1 T315I
T1 construct: fused on or other part: P11274 (Breakpoint cluster region protein)
Procedure: Ba/F3-BCR-ABL1-T315I-C3 cells in logarithmic growth phase and good cell condition were added to a centrifuge tube and centrifuged at 1000 rpm for 5 min in a low speed centrifuge. The supernatant was discarded, and 5 mL of complete medium (RPMI 1640 basic medium+10% FBS) was added using a pipette for cell resuspension. The cells were counted using a cell counter, diluted with complete medium to a cell density of 6×10^4 cells/mL, and an equivalent amount of RPMI 1640 basic medium was added to adjust the serum concentration to 5% and the cell density to 3×10^4 cells/mL for plate seeding. The cells were seeded on a 96-well plate at 100 μL/well using a multi-channel pipette and cultured in a cell incubator at 37° C. 5% CO2 and saturated humidity. After 24 h incubation, compounds were loaded using a nanoliter pipettor, 8 concentrations (1000 nM, 250 nM, 63 nM, 16 nM, 3.9 nM, 0.98 nM, 0.24 nM, 0.061 nM) were set for each compound, and 2 replicate wells were set for each concentration; cells with no compounds added were taken as a negative control, and a plating medium with no cells added was taken as a blank control. After 72 h. […] Inhibition rate (%)=(mean value of negative control group−mean value of experimental group)/(mean value of negative control group−mean value of blank group)×100%. A dose-response curve was fitted by four-parameter analysis, with the logarithm of compound concentration serving as abscissa and inhibition rate serving as ordinate, such that ICso was calculated.

[2] = Evaluation of pharmacokinetics in mice; format: in vivo; conditions: mouse, plasma, po, ICR mice; for bioavailability: ig 10 mg/kg, (intragastric AUC×intravenous dosage)/(intravenous AUC×intragastric dosage)×100%, read-out: Fabs(%) absolute bioavailability; for Cmax / Tmax / half-life / AUC(0-t) / MRT last: ig, 10 mg/kg; for AUC(0-t): read-out: AUC(0-24); for MRT last: read-out: MRT(0-24)
Procedure: ICR mice (purchased from Shanghai Sippe-Bk Lab Animal Co., Ltd.) of 18-22 g were randomized into groups of 9 after 3-5 days of acclimatization and administered with the compounds at a dose of 10 mg/kg by intragastric administration. The animals to be tested (ICR mice) were fasted overnight before administration and food was provided 4 h after administration, and water was freely drunk before and after the experiment and during the experiment. After intragastric administration, about 0.1 mL of blood was collected from the orbit at 0.25 (15 min), 0.5 (30 min), 1, 2, 3, 4, 6, 8, 10, and 24 h (Each mouse was subjected to blood collection at 3-4 time points, with three mice per time point). The blood samples were mixed with EDTA-K2 anticoagulant, transferred to a centrifuge within 30 min, and then centrifuged at 4000 rpm for 10 min at 4° C. to separate the plasma. All the plasma samples were collected and immediately stored at −20° C. for testing.
300 μL of acetonitrile solution containing an internal standard (20 ng/ml diazepam) was added to 30 μL of the plasma sample and standard curve sample. The mixture was shaken and mixed well for 5 min, and centrifuged at 13.000 rpm for 10 min. 70 μL of supernatant was taken and diluted with 70 μL of ultrapure water. After being mixed well, 1 μL of the resulting sample was subjected to LC/MS/MS, and a chromatogram was recorded.
Oral exposure of the compounds was evaluated by in vivo pharmacokinetic experiments in mice. The relevant pharmacokinetic parameters were fitted by using DAS3.2.5 software, where absolute bioavailability Fabs(%)=(intragastric AUC×intravenous dosage)/(intravenous AUC×intragastric dosage)×100%.

Row | SMILES | IC50 (K562 cells) [nM] | GI50 [1] [nM] | other results
1 | Cn1ccc(-c2cc(C(=O)Nc3ccc(OC(F)(F)Cl)cc3)cnc2N2CCOCC2)cc1=O [Compound 7] | 11 | 16 | bioavailability [2]: 74.1%; Cmax [2]: 772 ng/mL; Tmax [2]: 3 h; half-life [2]: 1.05 h; AUC(0-t) [2]: 2850 ng·h/mL; MRT last [2]: 3.03 h
2 | Cn1ccc(-c2cc(C(=O)Nc3ccc(OC(F)(F)Cl)cc3)cnc2N2CCCC2)cc1=O [Compound 15] | 3.1 | 9.6 | bioavailability [2]: 106%; Cmax [2]: 2330 ng/mL; Tmax [2]: 2 h; half-life [2]: 2.12 h; AUC(0-t) [2]: 12300 ng·h/mL; MRT last [2]: 3.64 h
3 | Cn1ccc(-c2cc(C(=O)Nc3ccc(OC(F)(F)Cl)cc3)cnc2N2CC[C@@H](F)C2)cc1=O [Compound 16] | 2.1 | 4.7 | bioavailability [2]: 93.2%; Cmax [2]: 1880 ng/mL; Tmax [2]: 3 h; half-life [2]: 1.46 h; AUC(0-t) [2]: 9690 ng·h/mL; MRT last [2]: 3.33 h
4 | Cn1cnc(-c2cc(C(=O)Nc3ccc(OC(F)(F)Cl)cc3)cnc2N2CCCC2)cc1=O [Compound 45] | 4.2 | 8.1 | –
5 | Cn1cnc(-c2cc(C(=O)Nc3ccc(OC(F)(F)Cl)cc3)cnc2N2CC[C@@H](O)C2)cc1=O [Compound 46] | 26 | 26 | –
6 | Cn1ncc(-c2cc(C(=O)Nc3ccc(OC(F)(F)Cl)cc3)cnc2N2CCCC2)cc1=O [Compound 47] | 2.6 | 1.8 | –
7 | Cn1cnc(-c2cc(C(=O)Nc3ccc(OC(F)(F)Cl)cc3)cnc2N2CC[C@@H](F)C2)cc1=O [Compound 53] | 3 | 2.7 | –
8 | Cn1cnc(-c2cc(C(=O)Nc3ccc(OC(F)(F)Cl)cc3)cnc2N2CCOCC2)cc1=O [Compound 54] | 8.5 | 6.4 | –
9 | C[C@@H]1COCCN1c1ncc(C(=O)Nc2ccc(OC(F)(F)Cl)cc2)cc1-c1cc(=O)n(C)cn1 [Compound 56] | 18 | 12 | –
10 | Cn1cncc(-c2cc(C(=O)Nc3ccc(OC(F)(F)Cl)cc3)cnc2N2CCOCC2)c1=O [Compound 60] | 6.3 | 4 | –
11 | CN(C)c1ncc(C(=O)Nc2ccc(OC(F)(F)Cl)cc2)cc1-c1cc(=O)n(C)cn1 [Compound 61] | 5.6 | 3 | bioavailability [2]: 95.1%; Cmax [2]: 3200 ng/mL; Tmax [2]: 2 h; half-life [2]: 10.4 h; AUC(0-t) [2]: 24100 ng·h/mL; MRT last [2]: 4.83 h
12 | CO[C@@H]1CCN(c2ncc(C(=O)Nc3ccc(OC(F)(F)Cl)cc3)cc2-c2cc(=O)n(C)cn2)C1 [Compound 63] | 5.2 | 6 | –
13 | Cn1cnc(-c2cc(C(=O)Nc3ccc(OC(F)(F)Cl)cc3)cnc2N2CCC(F)(F)CC2)cc1=O [Compound 64] | 9.1 | 8.1 | –
14 | Cn1cnc(-c2cc(C(=O)Nc3ccc(OC(F)(F)Cl)cc3)cnc2N2CCSCC2)cc1=O [Compound 67] | 12 | 6.1 | –
15 | Cn1cnc(-c2cc(C(=O)Nc3ccc(OC(F)(F)Cl)cc3)cnc2N2CC(F)(F)C2)cc1=O [Compound 72] | 9.2 | 6.3 | –
16 | C[C@@H]1CCN1c1ncc(C(=O)Nc2ccc(OC(F)(F)Cl)cc2)cc1-c1cc(=O)n(C)cn1 [Compound 76] | 2.2 | 2.2 | –
17 | Cn1ncc(-c2cc(C(=O)Nc3ccc(OC(F)(F)Cl)cc3)cnc2N2CC3CC(C2)O3)cc1=O [Compound 83] | 3.2 | 4.1 | –
18 | Cn1cccc(-c2cc(C(=O)Nc3ccc(OC(F)(F)Cl)cc3)cnc2N2CCOCC2)c1=O [Compound 86] | 24 | 14 | –
19 | Cn1ncc(-c2cc(C(=O)Nc3ccc(OC(F)(F)Cl)cc3)cnc2N2CC3CCC(C2)O3)cc1=O [Compound 91] | 6.6 | 4.1 | –
20 | CN1CCc2cc(-c3cc(C(=O)Nc4ccc(OC(F)(F)Cl)cc4)cnc3N3CC[C@@H](O)C3)[nH]c2C1=O [Compound 94] | 0.71 | 0.88 | –
21 | O=C(Nc1ccc(OC(F)(F)Cl)cc1)c1cnc(N2CCOCC2)c(-c2cc3c([nH]2)C(=O)NC3)c1 [Compound 96] | 4.7 | 0.59 | –
22 | O=C(Nc1ccc(OC(F)(F)Cl)cc1)c1cnc(N2CCOCC2)c(-c2cc3c([nH]2)C(=O)NCC3)c1 [Compound 97] | 5.7 | 2.3 | –
23 | O=C(Nc1ccc(OC(F)(F)Cl)cc1)c1cnc(N2CC(O)C2)c(-c2cc3c([nH]2)C(=O)NCC3)c1 [Compound 98] | 4.7 | 3.8 | –

Further lines, with some results ahead:

Row | IC50 (K562 cells) [nM] | GI50 [1] [nM] | SMILES | other results
24 | 3.2 | 1.4 | O=C(Nc1ccc(OC(F)(F)Cl)cc1)c1cnc(N2CC[C@@H](O)C2)c(-c2cc3c([nH]2)C(=O)NCC3)c1 [Compound 99] | –
25 | 0.95 | 0.27 | CN(C)c1ncc(C(=O)Nc2ccc(OC(F)(F)Cl)cc2)cc1-c1cc2c([nH]1)C(=O)NC2 [Compound 109] | –
26 | 3.1 | 0.44 | CNc1ncc(C(=O)Nc2ccc(OC(F)(F)Cl)cc2)cc1-c1cc2c([nH]1)C(=O)NC2 [Compound 110] | –
27 | 0.5 | 0.16 | CN1Cc2cc(-c3cc(C(=O)Nc4ccc(OC(F)(F)Cl)cc4)cnc3N3CC[C@@H](O)C3)[nH]c2C1=O [Compound 111] | –
28 | 0.54 | 0.29 | CN1Cc2cc(-c3cc(C(=O)Nc4ccc(OC(F)(F)Cl)cc4)cnc3N3CC(O)C3)[nH]c2C1=O [Compound 112] | –
29 | 0.62 | 0.18 | O=C(Nc1ccc(OC(F)(F)Cl)cc1)c1cnc(N2CC[C@@H](O)C2)c(-c2cc3c([nH]2)C(=O)N(C2CC2)C3)c1 [Compound 113] | –
30 | 0.56 | 0.21 | O=C(Nc1ccc(OC(F)(F)Cl)cc1)c1cnc(N2CC(O)C2)c(-c2cc3c([nH]2)C(=O)N(C2CC2)C3)c1 [Compound 114] | –
31 | 5.5 | 3 | CN1CCc2cc(-c3cc(C(=O)Nc4ccc(OC(F)(F)Cl)cc4)cnc3N3CCOCC3)[nH]c2C1=O [Compound 115] | –
32 | 0.82 | 0.12 | O=C(Nc1ccc(OC(F)(F)Cl)cc1)c1ccc(N2CC[C@@H](O)C2)c(-c2cc3c([nH]2)C(=O)NC3)c1 [Compound 116] | –
33 | 1 | 0.15 | O=C(Nc1ccc(OC(F)(F)Cl)cc1)c1ccc(N2CC(O)C2)c(-c2cc3c([nH]2)C(=O)NC3)c1 [Compound 117] | –
34 | 0.21 | 0.084 | O=C(Nc1ccc(OC(F)(F)Cl)cc1)c1ccc(N2CC(O)C2)c(-c2cc3c([nH]2)C(=O)N(C2CC2)C3)c1 [Compound 120] | –
